Data as given in patent US20210395327A1, “Growth Hormone-Releasing Hormone Antagonists and Uses Thereof” (United States Government As Represented By The Department …, priority 2019, published 2021).
“Also recorded” adds a separate entry of the source. Non-standard residues stand in square brackets, D forms with d. Residues, ends and D or L forms follow the SMILES beside them. *: point of attachment. Phenylacetyl(2,3,4,5,6-F5) = O=C(Cc1c(F)c(F)c(F)c(F)c1F)*; Phe(F5) = N[C@@H](Cc1c(F)c(F)c(F)c(F)c1F)C(=O)O; Phe(4-Cl) = N[C@@H](Cc1ccc(Cl)cc1)C(=O)O; hArg = N=C(N)NCCCC[C@H](N)C(=O)O; 12Ado = NCCCCCCCCCCCC(=O)O; Nle = CCCC[C@H](N)C(=O)O; Orn = NCCC[C@H](N)C(=O)O; Abu = CC[C@H](N)C(=O)O

Legend:
HCC827 lung cancer cells = experiment: In vitro cell viability, HCC827; type: cell-based, human; conditions: Table 3B; 5 μM for 72 H; MIA-602 = 1
Outline: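 Potency is reported as percent inhibition of viability compared with the reference antagonist MIA602, measured with CellTiter 96 aqueous one solution reagent. Serum-starved cells (0.5% FBS, 24 h) were treated for 72 h, mostly at 5 μM, otherwise 2 μM.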

HT-29 colon cancer cells = experiment: In vitro cell viability, HT-29; type: cell-based, human; conditions: Table 3B; 5 μM for 72 H; MIA-602 = 1
Protocol: The inhibitory effects of the various synthesized GHRH antagonists were tested in cell proliferation assays in various human cancer cell lines including stomach cancer (KATOIII, N87), colon cancer (HT-29), urothelial cancer (J82, RT4), pancreatic cancer (PANC-1, CFPAC-1), prostatic cancer (PC3), breast cancer (MX-1, HCC1806), ovarian cancer (SK-OV-3, OVCAR-3) and lung cancer (HCC827, H460).
Cell culture. Human cancer cell lines including pancreatic (PANC-1 and CFPAC-1), lung (HCC827 and H460), stomach (NCI-N87 and KATOIII), urothelial (J82, RT4), prostatic (PC3), breast (MX-1 and HCC 1806), colorectal (HT-29), and ovarian (SK-OV-3 and OVCAR-3) were obtained from the American Type Culture Collection (ATCC) and cultured at 37° C. in a humidified 95% air/5% CO2 atmosphere in the medium recommended by ATCC.
In vitro cell viability. Cell viability was analyzed as follows: cancer cells including pancreatic (PANC-1 and CFPAC-1), lung (HCC827 and H460), stomach (NCI-N87 and KATOIII), urothelial (J82, RT4), prostatic (PC3) and breast (MX-1 and HCC 1806), colorectal (HT-29) and ovarian (SK-OV-3 and OVCAR-3) were grown on 96 well plates to ˜60% confluence, the cells were starved for 24 h in culture medium containing 0.5% FBS. Cells were then treated with GHRH antagonists MIA602 AVR compounds at concentrations of 1, 2.5 or 5 μM, or vehicle (0.1% DMSO) in quintuplicates for 72 hours. The medium was replaced every 48 hours. Cell viability was measured using CellTiter 96 aqueous one solution kit (Promega). Inhibitory effects of tested AVR compounds in comparison to that of MIA602 are presented as inhibitory potency.
Inhibitory effects of selected AVR compounds in comparison to that of MIA602 are presented as inhibitory potency (e.g., percentage of inhibition). […] The cell lines tested including lung cancer HCC827 (FIG. 2A), pancreatic cancer CFPAC-1 (FIG. 2B), stomach cancer N87 (FIG. 2C), colon cancer HT-29 (FIG. 2D), breast cancers MX-1 and HCC1806 (FIGS. 2 E, F). Based on the results of cell proliferation assay after cancer cells were treated with antagonist at concentration of 5 μM for 72H, the relative inhibitory potency of AVR antagonists in comparison to MIA-602 is summarized in Table 3 A and B. Over 60 AVR compounds were tested in 12 cancer cell lines.
Based on the results of cell proliferation assay after cancer cells were treated with antagonist at concentration of 5 µM for 72H, * at concentration of 2 µM for 72 H.

[1] = test system: GH release from rat pituitary cells; experiment: Inhibition of GH release from rat pituitary cells in vitro (GH ELISA); type: cell-based; conditions: analogs 20 nM, then with 1 nM GHRH(1-29)NH2 for 30 minutes; Control = 1.00
Protocol: In vitro assessment of the antagonistic activity of GHRH analogs. Rats were decapitated and pituitaries were collected in pre-warmed HBSS (Hanks' Balanced Salt Solution). Tissue was then cut into small pieces and digested in HBSS medium containing 3% BSA, 50 μg/ml gentamycin and 0.5% collagenase for 50 minutes at 37° C. Cells were further dispersed by pipetting and passed through a 100 μm cell strainer with the addition of DMEM containing 50 μg/ml gentamycin. 10% horse serum and 2.5% FBS (growth medium). Cells were harvested at 475×g for 2 minutes, resuspended in fresh growth medium and seeded onto poly-D-lysine-coated 24-well plates (7 pituitaries/plate). Cells were left to recover for 4 days. Growth medium was then replaced with serum-free DMEM for 4 hours and GHRH analogs (at concentration of 20 nM) were added in DMEM containing 0.1% BSA for 30 minutes. Cells were replenished with medium containing the same concentration of the analogs and 1 nM GHRH(1-29)NH2 for 30 minutes. Medium from this step was collected, centrifuged at 800 g for 3 minutes and GH concentration was determined by ELISA (ALPCO Diagnostics, Mill Valley, Calif.) according to the manufacturer's instruction.

[2] = molecular target: T1, membrane GHRH-receptors on human anterior pituitary cells (Homo sapiens, UniProt Q02643); experiment: Receptor binding, displacement of 125I-[His1,Nle27]-hGH-RH(1-32)NH2 on human pituitary membranes
T1 construct: Human pituitary was purchased from the National Hormone and Peptide Program; tissue National Hormone and Peptide Program; host or cells: human pituitary (membrane fractions)
T1 sequence (Q02643 23-423): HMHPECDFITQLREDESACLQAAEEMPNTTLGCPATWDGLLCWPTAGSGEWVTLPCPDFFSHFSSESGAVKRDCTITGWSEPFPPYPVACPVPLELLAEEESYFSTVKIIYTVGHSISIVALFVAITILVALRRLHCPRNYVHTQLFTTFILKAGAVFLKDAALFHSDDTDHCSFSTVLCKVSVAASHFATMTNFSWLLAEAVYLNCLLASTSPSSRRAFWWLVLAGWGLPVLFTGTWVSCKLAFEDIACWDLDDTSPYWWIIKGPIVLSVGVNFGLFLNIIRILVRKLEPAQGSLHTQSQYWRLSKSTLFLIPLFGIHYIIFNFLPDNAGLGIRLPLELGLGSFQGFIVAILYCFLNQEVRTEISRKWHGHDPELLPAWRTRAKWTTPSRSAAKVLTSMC
Outline: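 Membrane fractions from human pituitary; peptides displace 125I-[His1,Nle27]-hGH-RH(1-32)NH2. IC50 is the dose giving 50% inhibition of specific binding, from duplicate tubes. Relative affinity is the ratio of test IC50 to hGH-RH(1-29)NH2 IC50.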

| SMILES | In vitro relative inhibitory potency in comparison to MIA-602, HCC827 (HCC827 lung cancer cells) | In vitro relative inhibitory potency in comparison to MIA-602, HT-29 (HT-29 colon cancer cells) | Relative GH release [1] | binding affinity to membrane receptors of human pituitary cells (in words) ([2]; competitive binding, human pituitary membrane fractions) | IC50 ([2]; membrane receptors on human anterior pituitary cells, mean of two to three determinations, read-out: IC50) [nM] |
| --- | --- | --- | --- | --- | --- |
| CCCC[C@H](NC(=O)[C@@H](NC(=O)[C@H](CC(=O)O)NC(=O)[C@H](CCC(N)=O)NC(=O)[C@H](CC(C)C)NC(=O)[C@H](CC(C)C)NC(=O)[C@H](CCCCN)NC(=O)[C@H](CCCNC(=N)N)NC(=O)[C@H](C)NC(=O)[C@H](CO)NC(=O)[C@H](CC(C)C)NC(=O)[C@H](CCC(N)=O)NC(=O)[C@H](CC)NC(=O)[C@H](CC(C)C)NC(=O)[C@@H](NC(=O)[C@H](CCCCN)NC(=O)[C@H](CCCNC(=N)N)NC(=O)[C@H](Cc1c(F)c(F)c(F)c(F)c1F)NC(=O)[C@H](CCCCNC(=N)N)NC(=O)[C@H](C)NC(=O)[C@@H](NC(=O)[C@H](Cc1ccc(Cl)cc1)NC(=O)[C@@H](NC(=O)[C@H](C)NC(=O)[C@H](CC(=O)O)NC(=O)[C@@H](CCCNC(=N)N)NC(=O)[C@H](Cc1ccc(O)cc1)NC(=O)CCCCCCCCCCCNC(=O)Cc1c(F)c(F)c(F)c(F)c1F)[C@@H](C)CC)[C@@H](C)O)C(C)C)[C@@H](C)CC)C(=O)N[C@H](CCCNC(=N)N)C(=O)N[C@@H](CCCCNC(=N)N)C(=O)NCCCCCCCCCCCC(=O)NC [AVR-354] ({Phenylacetyl(2,3,4,5,6-F5)-12Ado}-Y[dR]DAI[Phe(4-Cl)]TA[hArg][Phe(F5)]RKVL[Abu]QLSARKLLQDI[Nle][dR][hArg][12Ado]-NHMe) | 2.595 | 1.403 | 0.90 ± 0.02 | higher binding affinity in comparison to MIA-602; also recorded: highest binding affinities |  |
| CCCC[C@H](NC(=O)[C@@H](NC(=O)[C@H](CC(=O)O)NC(=O)[C@H](CCC(N)=O)NC(=O)[C@H](CC(C)C)NC(=O)[C@H](CC(C)C)NC(=O)[C@H](CCCN)NC(=O)[C@H](Cc1c[nH]cn1)NC(=O)[C@H](C)NC(=O)[C@H](CO)NC(=O)[C@H](CC(C)C)NC(=O)[C@H](CCC(N)=O)NC(=O)[C@H](CC)NC(=O)[C@H](CC(C)C)NC(=O)[C@@H](NC(=O)[C@H](CCCN)NC(=O)[C@H](Cc1c[nH]cn1)NC(=O)[C@H](Cc1c(F)c(F)c(F)c(F)c1F)NC(=O)[C@H](CCCCNC(=N)N)NC(=O)[C@H](C)NC(=O)[C@@H](NC(=O)[C@H](Cc1ccc(Cl)cc1)NC(=O)[C@@H](NC(=O)[C@H](C)NC(=O)[C@H](CC(=O)O)NC(=O)[C@@H](CCCNC(=N)N)NC(=O)[C@H](Cc1ccc(O)cc1)NC(=O)CCCCCCCCCCCNC(=O)Cc1c(F)c(F)c(F)c(F)c1F)[C@@H](C)CC)[C@@H](C)O)C(C)C)[C@@H](C)CC)C(=O)N[C@H](CCCNC(=N)N)C(=O)N[C@@H](CCCCNC(=N)N)C(=O)NCCCCCCCCCCCC(=O)NC [AVR-543, 5FPhAC-Ada-Tyr-DArg-Asp-Ala-Ile-Cpa-Thr-Ala-Har-5FPhe-His-Orn-Val-Leu-Abu-Gln-Leu-Ser-Ala-His-Orn-Leu-Leu-Gln-Asp-Ile-Nle-DArg-Har-Ada-NHCH3] ({Phenylacetyl(2,3,4,5,6-F5)-12Ado}-Y[dR]DAI[Phe(4-Cl)]TA[hArg][Phe(F5)]H[Orn]VL[Abu]QLSAH[Orn]LLQDI[Nle][dR][hArg][12Ado]-NHMe) | 0.961 | 0.999 | 1.10 ± 0.01 |  | 0.25 |
